From article PMC7312911, “Affibody-Binding Ligands” (International Journal of Molecular Sciences, 2020)
Where no end group is shown, it is not given here.

Key:
[1] = tested on: 1:1 solution of AF594-labeled anti-HSA affibody and AF488-labeled anti-IgG affibody; experiment: Affibody binding/elution in non-competitive conditions on peptide–Toyopearl, affibody mixture; conditions: for Yield (mass of affibody eluted vs. mass of bound affibody): non-competitive (pure affibody), PBS pH 7.4, 1 h, room temperature, elution pH 3.8, fluorescence spectroscopy; for capture of IgG-binding and HSA-binding affibodies compared: non-competitive, pure affibodies 1:1
Protocol: (§1) Ten peptides selected by sequence homology, namely, ARISRQ, IGKQRI, DIRIIR, QAAKRI, SHHSQR, DIHIRR, DHHKKA, DIRIQR, KSAYHS, and IHQRGQ, were tested as ligand candidates through binding studies in non-competitive conditions (pure affibody). The peptides were synthesized directly on Toyopearl AF-Amino 650 M resin by Fmoc/tBu synthesis; polymethacrylate-based Toyopearl resin was chosen as a chromatographic support for secondary screening in place of ChemMatrix, owing to its chemical resistance to the reagents and solvents used for peptide synthesis, low non-specific protein binding, and mechanical strength. The peptide–Toyopearl adsorbents were individually incubated with a 1:1 solution of AF594-labeled anti-HSA affibody and AF488-labeled anti-IgG affibody at the concentration of 1 mg/mL for 1 h at room temperature under gentle rotation. After washing with PBS, affibody elution (EL) was performed under acidic conditions (pH 3.8), followed by resin regeneration (R) using a harsh denaturing buffer (0.45% w/v 3-[(3-cholamidopropyl)dimethylammonio]-1-propanesulfonate (CHAPS) in 0.1 M glycine, pH 2.5). The amounts of affibodies in the unbound (UB), elution (EL), and regeneration (R) fractions, measured by fluorescence spectroscopy, were utilized to calculate the values of flow-through (FT) ratio (mass of affibody in the FT fraction vs. mass of fed antibody) and yield (mass of affibody eluted vs. mass of bound affibody), listed in Table 2.
(§2) The identified sequences were synthesized on Toyopearl AF-Amino 650 M resin by Fmoc/tBu synthesis to be tested for affibody binding in non-competitive mode. Aliquots of 50 μL of each peptide–Toyopearl adsorbent were transferred in a PCR tube, swollen in 20% methanol overnight, and copiously washed in 20% methanol to remove any residual chemical from peptide synthesis, before equilibrating in Milli-Q water followed by PBS, pH 7.4. Next, 100 μL of 50:50 solution of fluorescently labeled anti-HSA and anti-IgG affibodies (Section 2.3) at a total 1 mg/mL affibody concentration were incubated with every aliquot of peptide–Toyopearl resin for 1 h at room temperature under gentle rotation. Following incubation, the resins were pelleted by centrifugation, and the supernatant was collected and marked as “unbound” (UB) fraction. The resins were then washed with PBS and the supernatant were combined with the UB fractions. Protein elution (EL) was then performed by incubating the resins with 0.2 M acetate buffer at pH 3.8 (0.2 M acetic acid and 0.2 M sodium acetate at a 7:3 ratio) for 30 min at room temperature, and then by washing with the same elution buffer. Regeneration (R) was then performed by incubating the adsorbents with 100 mM glycine buffer at pH 2.5 added with 0.45% w/v CHAPS, at 4 °C for overnight. The collected elution fractions (EL and R) were finally equilibrated to neutral pH using PBS, pH 7.4. Finally, both UB and E fractions were diluted in PBS and analyzed by fluorescence spectroscopy.

anti-HSA affibody [2] = experiment: Affibody binding/elution in non-competitive conditions on peptide–Toyopearl, anti-HSA affibody; conditions: 100 μL of 50:50 labeled anti-HSA and anti-IgG affibodies, total 1 mg/mL, in PBS pH 7.4; 50 μL resin; 1 h, room temperature; elution 0.2 M acetate pH 3.8; fluorescence spectroscopy
Protocol: as §1, §2

anti-IgG affibody [3] = experiment: Affibody binding/elution in non-competitive conditions on peptide–Toyopearl, anti-IgG affibody; conditions: 100 μL of 50:50 labeled anti-HSA and anti-IgG affibodies, total 1 mg/mL, in PBS pH 7.4; 50 μL resin; 1 h, room temperature; elution 0.2 M acetate pH 3.8; fluorescence spectroscopy
Protocol: as §1, §2

anti-HSA affibody [4] = experiment: Affibody purification in competitive conditions (clarified E. coli cell lysate), anti-HSA affibody; format: binding; conditions: elution pH 3.8; for Recovery, anti-HSA affibody: 0.4 mg/mL affibody and 2 mg/mL E. coli HCPs, 200 μL feed, room temperature, eluted vs. loaded amount, fluorescence spectroscopy; for Purity, anti-HSA affibody: competitive, clarified E. coli cell lysate, densitometric analysis of EL lanes, SDS-PAGE
Protocol: (§3) The adsorbents IGKQRI–GSG–Toyopearl, IHQRGQ–GSG–Toyopearl, KSAYHS–GSG–Toyopearl, and DIRIIR–GSG–Toyopearl resins were utilized to evaluate the ability of the selected sequences to purify affibody molecules from complex sources. To this end, a feed sample was prepared by spiking fluorescently labeled anti-HSA and anti-IgG affibodies at a 1:1 molar ratio into clarified E. coli cell lysate, to obtain a final concentration of 0.4 mg/mL of affibody and 2 mg/mL of bacterial HCPs. The peptide–Toyopearl adsorbents were incubated with 200 μL of feed sample for 30 min at room temperature under gentle rotation. The unbound (UB) and elution (EL) fractions were analyzed by fluorescence spectroscopy and SDS-PAGE (Figure 1) to determine the values of recovery and purity for both affibody products (Table 3). It is noted that the mass of the affibody product measured electrophoretically appears to be double than the theoretical 6.5 kDa; this is likely due to dimerization of the affibodies by formation of a disulfide bond through their C-terminal cysteine residues.
(§4) Three sequences selected in Section 2.6 were then evaluated for affibody binding in competitive mode. Aliquots of 100 μL of the peptide–Toyopearl adsorbents were swollen and equilibrated as described in Section 2.6. The feed sample was prepared by combining 100 μL of equimolar solution of fluorescently labeled anti-HSA and anti-IgG affibodies at a total 2 mg/mL affibody concentration with 400 μL of clarified E. coli cell lysate at the adjusted concentration of host cell proteins (HCPs) of 2.5 mg/mL, to obtain a final concentration of 0.4 mg/mL of affibody and 2 mg/mL of HCPs. Next, 200 μL of feed samples were incubated with each aliquot of wet peptide–Toyopearl resin for 2 h at room temperature under gentle rotation. After incubation, unbound (UB) and elution (EL) fractions were obtained as described in Section 5.2.5; they were then analyzed by fluorescence spectroscopy to determine the yield of both affibodies and finally by SDS-PAGE to determine the total purity of the eluted affibody products.
(§5) The collected fractions were desalted into phosphate buffer at pH 7.4 using Amicon Ultra 0.5-mL centrifugal filters (3 kDa MWCO). Based on the total protein concentration determined by Bradford assay, the collected fractions were adjusted at a total protein concentration of 0.1 mg/mL, diluted 1:1 with 2× Laemmli sample buffer containing 5% β-mercaptoethanol, and incubated at 100 °C for 5 min. Next, 20 µL of each sample was loaded onto each well of a 12% Mini PROTEAN® TGX precast electrophoresis gel. Then, 10 µL of Precision Plus Protein TM Dual Color Standards diluted 100× in Laemmli sample buffer was loaded in the first and last wells. Gels were electrophoresed at 100 V constant for 95 min using a Mini PROTEAN Tetra Cell (Bio-Rad, Hercules, CA, USA) linked to a PowerPac 300 power supply (Bio-Rad). Gels were fixed in 10% acetic acid, 40% ethanol in MilliQ water for 1 h. Fixed gels were washed with MilliQ water and Coomassie stained. Imaging and densitometric analysis were performed with a GelDoc XR+ (Bio-Rad) and Image Lab software (Bio-Rad) with band intensities scaled to the intensity of an affibody standard.

anti-IgG affibody [5] = experiment: Affibody purification in competitive conditions (clarified E. coli cell lysate), anti-IgG affibody; format: binding; conditions: elution pH 3.8; for Recovery, anti-IgG affibody: 0.4 mg/mL affibody and 2 mg/mL E. coli HCPs, 200 μL feed, room temperature, eluted vs. loaded amount, fluorescence spectroscopy; for Purity, anti-IgG affibody: competitive, clarified E. coli cell lysate, densitometric analysis of EL lanes, SDS-PAGE
Protocol: as §3, §4, §5

[6] = tested on: anti-IgG, anti-HSA, and anti-ErbB2 affibodies; experiment: Langmuir adsorption isotherms, all three affibodies; format: binding
Protocol: The adsorption isotherms of anti-IgG, anti-HSA, and anti-ErbB2 affibodies on IGKQRI–GSG–Toyopearl resin were performed as described in prior work [37, 51]. Toyopearl resins functionalized with human IgG and serum albumin were utilized as corresponding positive controls, while Toyopearl® HW-40F was utilized as a negative control. Briefly, the adsorbents were incubated with solutions of target affibody at concentrations ranging between 0.01 and 2 mg/mL until binding equilibrium was reached (2.5 h). The values of bound affibody per volume of resin (q) and the corresponding equilibrium concentration of unbound affibody (C*) were fit to a Langmuir isotherm model to determine the value of maximum binding capacity (Qmax) and dissociation constant (KD,Langmuir).
Eight 50-µL aliquots of IGKQRI–GSG–Toyopearl resin were initially equilibrated in PBS at pH 7.4. Eight 0.2-mL solutions of anti-hIgG, anti-hHSA, and anti-ErbB2 affibodies in PBS at concentrations ranging from 0.01 to 2 mg/mL were prepared and incubated with the aliquots of IGKQRI–GSG–Toyopearl resin for 2.5 h at room temperature under mild shaking. […] The supernatant and washing solutions were combined and analyzed by fluorescence spectroscopy to determine the equilibrium concentration of affibody solution. The mass of affibody bound by the resin was determined by mass balance. […]

Substance | Yield (mass of affibody eluted vs. mass of bound affibody) [1] [%] | mFT/mE (Anti-HSA), flow-through elution mass ratio (anti-HSA affibody [2]) | mFT/mE (Anti-IgG), flow-through elution mass ratio (anti-IgG affibody [3]) | Recovery, anti-HSA affibody (anti-HSA affibody [4]) | Purity, anti-HSA affibody (anti-HSA affibody [4]) [%] | Recovery, anti-IgG affibody (anti-IgG affibody [5]) | Purity, anti-IgG affibody (anti-IgG affibody [5]) [%] | capture of IgG-binding and HSA-binding affibodies compared [1] | binding of all target affibodies compared ([6]; Langmuir isotherms) | binding capacity (Qmax), summary ([6]; static binding, pure affibodies, summary over three affibodies)
ARISRQ | 51.7 | 1.709 | 0.885 | – | – | – | – | – | – | –
DHHKKA | 38.5 | 2.039 | 1.256 | – | – | – | – | – | – | –
DIHIRR | 40.4 | 0.473 | 1.277 | – | – | – | – | – | – | –
DIRIIR | – | 1.553 | 0.707 | 74.9% ± 3.6% | 96.2 | 78.3% ± 2.5% | 96.5 | – | – | –
DIRIQR | 39.5 | 2.401 | 0.445 | – | – | – | – | – | – | –
IGKQRI [IGKQRI] | – | 0.628 | 0.448 | 95.2% ± 4.6% | 94.1 | 97.2% ± 1.5% | 95.8 | equal capture of IgG-binding and HSA-binding affibodies | comparable affinity and binding capacity | ~ 5 mg affibody per mL of resin
IHQRGQ | – | 0.781 | 0.446 | 96.1% ± 2.4% | 92.6 | 95.3% ± 4.5% | 93.1 | equal capture of IgG-binding and HSA-binding affibodies | – | –
KSAYHS | – | 0.796 | 0.405 | 89.5% ± 0.7% | 96.3 | 88.6% ± 3.4% | 96.4 | equal capture of IgG-binding and HSA-binding affibodies | – | –
QAAKRI | 35 | 0.801 | 2.245 | – | – | – | – | – | – | –
SHHSQR | 44.3 | 1.387 | 1.238 | – | – | – | – | – | – | –
